According to patent US11866420B2, “Hydrochloride salt forms of a sulfonamide structured kinase inhibitor” (Aurigene Oncology Limited, priority 2018, dated 2024):
Structures can show the parent of a compound that is named as a salt.

What was measured:
[1] = Stability of the crystalline forms in different water activity conditions (slurry experiments); type: physicochemical; settings: for Resulting crystalline form: HCl added; for Water activity conditions under which the crystalline form is favoured: water/methanol slurries with HCl, room temperature, 3 days
Description: Stability of the crystalline forms in different water activity conditions was studied in slurry experiments where crystalline forms 1 and 3 were stirred for 3 days at room temperature in mixtures of water and methanol in the presence of HCl to maintain acidic conditions.

[2] = Long-term stability of forms 3 and 8 at different storage conditions; type: physicochemical
Procedure: Long-term stability of crystalline forms 3 and 8 at different storage conditions was studied. The conditions were a) 25° C./RH 60% in a closed vessel, b) 40° C./RH 75% in a closed vessel, c) 40° C./RH 75% in an open vessel and d) 25° C./RH 100% in an open vessel.

[3] = Thermogravimetric analysis (TGA), onset of disproportionation; type: physicochemical; settings: for Onset temperature of disproportionation: TGA with head space mass spectroscopy, start of rapid evaporation of Cl ion
Procedure: The TGA thermograms for the crystalline forms 1, 3, 5 and 8 were collected on TGA equipment (TA Instruments). The gases recovered during each run were analyzed by head space mass spectroscopy (Agilent GS system). The measurement allowed to register the temperature at which rapid evaporation of Cl ion (disproportionation) started.
The onset temperature of disproportionation for crystalline forms 1, 3, 5 and 8 was determined based on TGA measurements.

[4] = Hygroscopicity (Dynamic Vapour Sorption); type: physicochemical; settings: between 20%-90% RH, T=25° C., DVS mass change
Procedure: The hygroscopicity of the crystalline forms 1, 3, 5 and 8 was evaluated using DVS-1 Dynamic Vapour Sorption equipment (Surface Measurement Systems Ltd, London, UK). The amount of 5-10 mg of each crystalline form was equilibrated at 20% RH. The mass change (%) was recorded at 30%, 40%, 50%, 60%, 70%, 80% and 90% RH at T=25° C. The equilibration condition at each point was dm/dt≤0.0003.

[5] = Water solubility; type: physicochemical; settings: physiological pH range
[6] = Bioavailability after oral administration; type: in vivo

Structure (SMILES): Cn1cc(-c2ccc3c(c2)ncn3-c2cc(NS(=O)(=O)C3CC3)cc(-c3ccc(F)cc3F)c2)cn1 [Form 3, N-(2′,4′-difluoro-5-(5-(1-methyl-1H-pyrazol-4-yl)-1H-benzo[d]imidazol-1-yl)-[1,1′-biphenyl]-3-yl)cyclopropanesulfonamide hydrochloride]
- Resulting crystalline form ([1]; 4.7% H2O in MeOH, water activity 0.17, slurry 3 days at room temperature): Form 3
- Resulting crystalline form ([1]; 10% H2O in MeOH, water activity 0.31, slurry 3 days at room temperature): Form 3
- Resulting crystalline form ([1]; MeOH, water activity 0, slurry stirred 3 days at room temperature): Form 3
- Water activity conditions under which the crystalline form is favoured ([1]; listed as crystalline form 3, hydrochloride): ambient to about 0.3
- Long-term stability: stable up to ([2]; 25° C./RH 60% closed vessel, listed as Crystalline form 3, hydrochloride): Stable up to 36 months
- Long-term stability: time after which form changed ([2]; 25° C./RH 100% open vessel): 1 week
- Long-term stability: change of crystalline form ([2]; 25° C./RH 100% open vessel, hydrochloride): 5
- Long-term stability: change of crystalline form ([2]; 25° C./RH 100% open vessel, listed as Crystalline form 3, hydrochloride): Change to form 5 after
- Long-term stability: stable up to ([2]; 40° C./RH 75% closed vessel, listed as Crystalline form 3, hydrochloride): Stable up to 12 months
- Long-term stability: time after which form changed ([2]; 40° C./RH 75% open vessel): 1 days
- Long-term stability: change of crystalline form ([2]; 40° C./RH 75% open vessel, hydrochloride): changes to form 8
- Long-term stability: change of crystalline form ([2]; 40° C./RH 75% open vessel, listed as Crystalline form 3, hydrochloride): Change to form 8 after
- Onset temperature of disproportionation ([3]; listed as 3, hydrochloride): 171 °C

Structure (SMILES): Cn1cc(-c2ccc3c(c2)ncn3-c2cc(NS(=O)(=O)C3CC3)cc(-c3ccc(F)cc3F)c2)cn1 [Form 8, N-(2′,4′-difluoro-5-(5-(1-methyl-1H-pyrazol-4-yl)-1H-benzo[d]imidazol-1-yl)-[1,1′-biphenyl]-3-yl)cyclopropanesulfonamide hydrochloride]
- Long-term stability: stable up to ([2]; 25° C./RH 60% closed vessel, listed as Crystalline form 8, hydrochloride): ≥ 36 months
- Long-term stability: stable up to ([2]; 25° C./RH 100% open vessel): ≥ 2 months
- Long-term stability: stable up to ([2]; 40° C./RH 75% closed vessel, listed as Crystalline form 8, hydrochloride): ≥ 6 months
- Long-term stability: stable up to ([2]; 40° C./RH 75% open vessel): ≥ 1 month
- Stability at storage conditions (overall) ([2]; all storage conditions (25° C./RH 60%, 40° C./RH 75% closed and open, 25° C./RH 100% open)): good stability
- Hygroscopicity ([4]; listed as form 8, hydrochloride): practically non-hygroscopic
- Onset temperature of disproportionation ([3]; listed as 8, hydrochloride): 187 °C
- Thermal stability against disproportionation ([3]; TGA, compared among crystalline forms 1, 3, 5 and 8): highest thermal stability

Structure (SMILES): Cn1cc(-c2ccc3c(c2)ncn3-c2cc(NS(=O)(=O)C3CC3)cc(-c3ccc(F)cc3F)c2)cn1 [Form 5, N-(2′,4′-difluoro-5-(5-(1-methyl-1H-pyrazol-4-yl)-1H-benzo[d]imidazol-1-yl)-[1,1′-biphenyl]-3-yl)cyclopropanesulfonamide hydrochloride]
- Water activity conditions under which the crystalline form is favoured ([1]; listed as crystalline form 5, hydrochloride): about 0.9
- Onset temperature of disproportionation ([3]; listed as 5, hydrochloride): 145 °C

Structure (SMILES): Cn1cc(-c2ccc3c(c2)ncn3-c2cc(NS(=O)(=O)C3CC3)cc(-c3ccc(F)cc3F)c2)cn1 [Form 1, N-(2′,4′-difluoro-5-(5-(1-methyl-1H-pyrazol-4-yl)-1H-benzo[d]imidazol-1-yl)-[1,1′-biphenyl]-3-yl)cyclopropanesulfonamide hydrochloride]
- Resulting crystalline form ([1]; 16% H2O in MeOH, water activity 0.44, slurry 3 days at room temperature): Form 3 + Form 8
- Resulting crystalline form ([1]; 26.6% H2O in MeOH, water activity 0.59, slurry 3 days at room temperature): Form 3 + Form 8
- Resulting crystalline form ([1]; 45.2% H2O in MeOH, water activity 0.75, slurry 3 days at room temperature): Form 8
- Resulting crystalline form ([1]; 71.5% H2O in MeOH, water activity 0.88, slurry 3 days at room temperature): Form 5
- Hygroscopicity ([4]; hydrochloride): particularly low hygroscopicity
- Onset temperature of disproportionation ([3]; listed as 1, hydrochloride): 148 °C

Structure (SMILES): Cn1cc(-c2ccc3c(c2)ncn3-c2cc(NS(=O)(=O)C3CC3)cc(-c3ccc(F)cc3F)c2)cn1 [Compound (I), N-(2′,4′-difluoro-5-(5-(1-methyl-1H-pyrazol-4-yl)-1H-benzo[d]imidazol-1-yl)-[1,1′-biphenyl]-3-yl)cyclopropanesulfonamide]
- Solubility in water [5]: practically insoluble
- Bioavailability after oral administration [6]: very low
